Ends that are not written are not given here.

Data set [1] has as its system 3T3-L1 cells. The note with it: cited from earlier work. The text has this: Although we believe there have been no previous studies detailing the […] peptide, it can be considered as a suitable novel peptide capable of addressing the problem of obesity. The literature does contain references to peptides which act in a similar manner to affect preadipocytes during their initial proliferation. […] It was noted by Zhang et al. that th ...

In a further data set the test system is lipase. Particulars: cited from earlier work. On the procedure: The Lineweaver-Burk plot was used to evaluated the inhibition mode of the […] peptide obtained from DLSH, and the outcome can be observed in Fig 6(A) (S6 Table). The plot of the inhibition activity was created by altering the concentration of the substrate while maintaining the peptide concentration at the same level throughout (0, 0.1, 0.3 and 0.5 mM). […] The peptide accordingly acted as a lipase inhibitor by taking the form o ...

In a further data set the test system is 3T3-L1 adipocytes. Description: Intracellular lipid accumulation, Oil Red O staining. The format is cell-based. The note with it: simvastatin 10 μM (S); % of differentiated model (100%); mean ± SE. On the procedure: On the first day, a modified assay proposed by Zhang et al. was carried out for the purpose of 3T3-L1 cells cell culture and differentiation, by initially seeding the 3T3-L1 preadipocyte cells in 6-well plates with a density of 1×10^5 cells per well and then culturing in DMEM with 10% FBS at a temperature of 37°C for 24 h in an atmosphere of 5% carbon dioxide. On the second day, adipocyte differentiation was performed by treating the 3T3-L1 cells with a differentiation medium comprising DMEM with 10% FBS, mixed with 0.5 mM 3-isobutyl-1-methylxanthine (IBMX), 1 μM dexamethasone, and 10 μg/mL insulin. This process took three days, whereupon on day 5 the original medium was removed and a new insulin medium, comprising DMEM with 10% FBS and 10 μg/mL insulin, was used to maintain adipocyte characteristics with a 3-day incubation period. […] Oil Red O staining was then used to evaluate the intracellular lipid accumulation of the mature 3T3-L1 adipocytes. This process required the cells to first be rinsed in PBS and then fixed for 1 h at room temperature with 10% formalin. […] It was then possible to evaluate the accumulation of lipids by dissolving in isopropanol (100%), and to measure the absorbance at 540 nm. The lipid accumulation was expressed as a percentage in comparison to the control.

For the next data set, the system named is AMPK-α. Description: Western blot AMPK-α expression. Particulars: GRSPDTHSG 0.25-1 mM or simvastatin 10 μM. The format is cell-based. The protocol:
On the first day, a modified assay proposed by Zhang et al. was carried out for the purpose of 3T3-L1 cells cell culture and differentiation, by initially seeding the 3T3-L1 preadipocyte cells in 6-well plates with a density of 1×10^5 cells per well and then culturing in DMEM with 10% FBS at a temperature of 37°C for 24 h in an atmosphere of 5% carbon dioxide. On the second day, adipocyte differentiation was performed by treating the 3T3-L1 cells with a differentiation medium comprising DMEM with 10% FBS, mixed with 0.5 mM 3-isobutyl-1-methylxanthine (IBMX), 1 μM dexamethasone, and 10 μg/mL insulin. This process took three days, whereupon on day 5 the original medium was removed and a new insulin medium, comprising DMEM with 10% FBS and 10 μg/mL insulin, was used to maintain adipocyte characteristics with a 3-day incubation period. […] Once extracted, the proteins of equivalent concentration underwent separation on 12% sodium dodecyl sulfate-polyacrylamide gel electrophoresis (SDS-PAGE) before moving to polyvinylidene fluoride (PVDF) membranes (Millipore, Bedford, MA, USA). […] The membranes were then incubated overnight at a temperature of 4°C with the primary antibodies (PPAR-γ, AMPK-α, SREBP-1C and β-actin) diluted at 1:1000. […] The band intensity could then be measured using ImageJ software (version 1.53; National Institutes of Health, MD, USA). […]
On the technique in general: Immunoblotting shows a protein as a band on a membrane.

The target of data set [2] is T1, porcine pancreatic lipase (Sus scrofa, UniProt P00591).
T1 sequence (P00591 1-450): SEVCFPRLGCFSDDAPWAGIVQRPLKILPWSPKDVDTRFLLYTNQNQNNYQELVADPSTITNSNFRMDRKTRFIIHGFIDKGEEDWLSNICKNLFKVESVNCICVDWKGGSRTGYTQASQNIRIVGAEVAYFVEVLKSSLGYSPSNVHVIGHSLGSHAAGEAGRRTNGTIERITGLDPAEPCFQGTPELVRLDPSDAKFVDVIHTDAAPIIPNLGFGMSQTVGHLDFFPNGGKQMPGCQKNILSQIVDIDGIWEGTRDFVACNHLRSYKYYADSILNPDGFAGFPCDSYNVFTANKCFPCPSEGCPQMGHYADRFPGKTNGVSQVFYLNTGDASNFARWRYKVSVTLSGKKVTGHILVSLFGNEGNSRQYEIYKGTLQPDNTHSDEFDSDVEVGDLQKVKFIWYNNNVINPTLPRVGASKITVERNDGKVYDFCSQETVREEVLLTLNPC
Briefly: Lipase inhibitory activity (LI), pNPP substrate. Type of data set: biochemical. The note with it: synthetic peptide, pH 7.0, 37°C, 30 min. On the procedure: (§1) The determination of lipase inhibition was performed using a method with slight modifications as described by Ketprayoon et al.. The p-nitrophenyl palmitate (pNPP) was served as the substrate, with a solution containing 30 mg of pNPP dissolved in 10 mL of isopropanol. This pNPP solution was then emulsified by combining it with 90 mL of 50 mM Tris-HCl at pH 7.0, 20 μL of Triton X-100 and 100 mg of gum arabic. The assay was initiate the assay by incubating the porcine pancreatic lipase (0.5 mg/mL in 50 mM Tris‐HCl buffer, pH 7.0), pNPP solution and DLSH peptides at a temperature of 37°C for 30 min. Absorbance was then measured at 410 nm for p-nitrophenol with Orlistat employed as the positive control. […] LI=AN−AP×100/AN (3) in which AN indicates the absorbance of the negative control in the absence of the peptide, whereas AP indicates the absorbance of activity when the peptide is present.

For data set [3], the target named is T1, porcine pancreatic lipase. Description: Kinetic study of lipase inhibition (Lineweaver-Burk, Dixon plot). The format is biochemical. Particulars: non-competitive, pNPP, 37°C, pH 7.0, 30 min, mean ± SE (n = 3), read-out: Inhibition constant (Ki). The protocol: as §1
The inhibitory mechanism of the lipase inhibitor was investigated using the Lineweaver-Burk plot. […] The reaction mixtures were incubated under a temperature of 37°C and pH 7.0 for 30 min, while initial velocity rates were determined at different substrate concentrations (0.1, 0.2, 0.3, 0.4, and 0.5 mM). […] The Michaelis-Menten constant (Km) and maximum velocity (Vmax) for the lipase inhibition were determined by analyzing the intercepts on the x-axis and y-axis, respectively. […]

Data set [4] has as its system 3T3-L1 cells. Briefly: MTT cell viability. The format is cell-based. The note with it: 72 h, mean ± SE (n = 3), ns. On the procedure:
Following incubation, each well received 10 μL of MTT solution (5 mg/mL), before a further 4 h of incubation at a temperature of 37°C. Then 100 μL of DMSO was added to dissolve the MTT-formazan crystals in the viable cells before measuring the absorbance at 540 nm.

In the case of “CANPHELPNK [peptide from Spirulina platensis protein, pepsin digestion]”, the Triglyceride accumulation entry with 3T3-L1 cells [1] was “potentially limiting triglyceride accumulation”.
As to GAGVGY [GAGVGY], the “Glucose transport and lipid metabolism” value in the data set on 3T3-L1 cells [1] is “enhance the transport of glucose and support the lipid metabolism in 3T3-L1 adipocytes”.
“DIVDKIEI [peptide derived from extract of boiled tuna]”: in the data set with 3T3-L1 cells [1], the 3T3-L1 preadipocyte differentiation result was “effective in inhibiting 3T3-L1 preadipocyte differentiation”; the “Triglyceride levels and glucose uptake” value was “lowering both triglyceride levels and the uptake of glucose”.
In the case of glutathione, in the data set on lipase, the “Mode of lipase inhibition” value is recorded as “non-competitive inhibition”.
In the data set with 3T3-L1 adipocytes, `CCC(C)(C)C(=O)O[C@H]1C[C@@H](C)C=C2C=C[C@H](C)[C@H](CC[C@@H]3C[C@@H](O)CC(=O)O3)[C@H]21` [Simvastatin, simvastatin] came in with a Lipid accumulation of 51.66 ± 1.81%. Besides, the “AMPK expression, in words” value with AMPK-α was “AMPK expression level rose”.
Consider “NPVWKRK [peptide from Spirulina platensis protein, pepsin digestion]”, for which the Triglyceride accumulation result with 3T3-L1 cells [1] is given as “potentially limiting triglyceride accumulation”.
As usually defined, the IC50 is the concentration at which inhibition is half-maximal. A higher IC50 goes with lower potency. Usually Ki stands for a measure of affinity in units of concentration, obtained from inhibition or displacement. In data set [2], GRSPDTHSG gave an IC50 of 255 µM. Further, in data set [3], the inhibition constant Ki was found to be 610 ± 90 µM. Also, the values for the Cell viability in the data set on 3T3-L1 cells [4] (0.25 mM), in the data set with 3T3-L1 cells [4] (0.50 mM) and with 3T3-L1 cells [4] (1.00 mM) were 97.02 ± 4.65%, 92.90 ± 1.60% and 85.96 ± 2.05%, respectively.
Take “LLVVYPWTQR [synthetic decapeptide derived from C. pyenoidose]”: in the data set on 3T3-L1 cells [1] (600 μg/mL, reduced), the Intracellular lipid accumulation was 27.91%.

Values taken from PMC11111035, “Lemon basil seed-derived peptide: Hydrolysis, purification, and its role as a pancreatic lipase inhibitor that reduces adipogenesis by downregulating SREBP-1c and PPAR-γ in 3T3-L1 adipocytes” (PLOS ONE, 2024).
